Measured values: US8372831B2, “Isoxazoline linked pyrrolo[2,1-c][1,4]benzodiazepine hybrids as potential anticancer agents and the process for preparation thereof” (Council of Scientific & Industrial Research, priority 2008, dated 2013)
Like-named read-outs stand apart in the source and are kept apart here.

Columns and labels:
[1] = tested on: sixty human tumour cell lines; test: NCI in vitro cytotoxicity, sixty human tumour cell lines (SRB); type: cell-based; details: for GI50: bound over all cell lines; for Log10 GI50 mean graph midpoint (MG_MID) / Log10 TGI mean graph midpoint (MG_MID): human tumour cell lines; for Log10 TGI mean graph midpoint (MG_MID): total cell growth inhibition
Experimental: (§1) Biological Activity: The in vitro biological activity studies were carried out at the National Cancer Institute, Maryland, USA.
(§2) The C8-linked isoxazoline-PBD hybrids have been tested against sixty human tumour cell lines derived from nine cancer types (leukemia, non-small cell lung cancer, colon cancer, CNS cancer, melanoma, ovarian cancer, renal cancer, prostate cancer and breast cancer) as per NCI protocol. For each compound, dose response curves for individual cell lines have been measured at a minimum of five concentrations at 10 fold dilutions. A protocol of 48 hrs continuous drug exposure has been used, and a sulforhodamine B (SRB) protein assay was used to estimate cell viability or growth. The concentration for 50% cell growth inhibition (GI50), total cell growth inhibition (TGI, 0% growth) and 50% cell death (LC50, […]) compared with the control has been calculated (FIG. 2).
(§3) Compound 5b and 9b have been evaluated for in vitro cytotoxicity in sixty cell lines from nine human cancer types of lung (Hop-62, NCI-H226, NCI-H522), leukemia (K-562, SR), colon (HCT-116, HCT-15, HCC-2998), CNS(SF-539), melanoma (SK-MEL-5, UACC-62, M14), ovarian (IGROV1), renal (A498), prostate (PC3) breast (BT-549, MDA-MB-435, HS578T) origin. The results are expressed as percent of cell growth determined relative to that of untreated control cells (Table 1).

CNS = test: NCI SRB cytotoxicity, CNS cancer panel; type: cell-based, human; details: average of six to eight different cancer cell lines; for Log10 LC50: 50% lethality
Experimental: as §1, §2, §3

Renal = test: NCI SRB cytotoxicity, renal cancer panel; type: cell-based, human; details: average of six to eight different cancer cell lines; for Log10 LC50: 50% lethality
Experimental: as §1, §2, §3

Breast = test: NCI SRB cytotoxicity, breast cancer panel; type: cell-based, human; details: average of six to eight different cancer cell lines; for Log10 LC50: 50% lethality
Experimental: as §1, §2, §3

[2] = tested on: duplex-form calf thymus DNA (CT-DNA); test: Thermal denaturation studies with calf thymus DNA; type: binding; details: [PBD]:[DNA] molar ratio 1:5, CT-DNA 100 μM, ligand 20 μM, pH 7.00
Experimental: Compounds have been subjected to thermal denaturation studies with duplex-form calf thymus DNA (CT-DNA) using a modification of a reported procedure. Working solutions in aqueous buffer (10 mM NaH2PO4/Na2HPO4, 1 mM Na2EDTA, pH 7.00+0.01) containing CT-DNA (100 (μm in phosphate) and the PBD (20(μm) have been prepared by addition of concentrated PBD solutions in DMSO to obtain a fixed [PBD]/[DNA] molar ratio of 1:5. The DNA-PBD solutions have been incubated at 37° C. for 0 and 18 hrs prior to analysis. Samples have been monitored at 260 nm using a Beckman DU-800 spectrophotometer fitted with high performance temperature controller, and heated at 1° C. min^−1 in the 40-110° C. range. DNA helix→coil transition temperatures (Tm) have been obtained from the maxima in the d(A260)/d T derivative plots. Drug-induced alterations in DNA melting behavior are given by: ΔTm=Tm(DNA+PBD)−Tm(DNA alone), where the Tm value for the PBD-free CT-DNA is 68.5±0.01.
The DNA-binding for these novel C8-linked isoxazoline-PBD hybrids has been examined by thermal denaturation studies using calf thymus CT-DNA. […] Data for 5a-c, 9b and 9g and DC-81 are included in Table 4 for comparison.

RPMI-8226 = test: NCI SRB cytotoxicity, RPMI-8226 (leukemia); type: cell-based, human; details: 48 hrs exposure
Experimental: as §1, §2, §3

SR = test: NCI SRB cytotoxicity, SR (leukemia); type: cell-based, human
Experimental: as §1, §2, §3

EKVX = test: NCI SRB cytotoxicity, EKVX (non-small cell lung); type: cell-based, human; details: Non-smallcell lung, 48 hrs exposure
Experimental: as §1, §2, §3

NCI-H322M = test: NCI SRB cytotoxicity, NCI-H322M (non-small cell lung); type: cell-based, human; details: Non-smallcell lung, 48 hrs exposure
Experimental: as §1, §2, §3

NCI-H522 = test: NCI SRB cytotoxicity, NCI-H522 (non-small cell lung); type: cell-based, human
Experimental: as §1, §2, §3

COLO 205 = test: NCI SRB cytotoxicity, COLO 205 (colon); type: cell-based, human; details: 48 hrs exposure
Experimental: as §1, §2, §3

HCT-15 = test: NCI SRB cytotoxicity, HCT-15 (colon); type: cell-based, human
Experimental: as §1, §2, §3

KM12 = test: NCI SRB cytotoxicity, KM12 (colon); type: cell-based, human; details: 48 hrs exposure
Experimental: as §1, §2, §3

SF-268 = test: NCI SRB cytotoxicity, SF-268 (CNS); type: cell-based, human; details: 48 hrs exposure
Experimental: as §1, §2, §3

SNB-19 = test: NCI SRB cytotoxicity, SNB-19 (CNS); type: cell-based, human; details: 48 hrs exposure
Experimental: as §1, §2, §3

SNB-75 = test: NCI SRB cytotoxicity, SNB-75 (CNS); type: cell-based, human; details: 48 hrs exposure
Experimental: as §1, §2, §3

MALME-3M = test: NCI SRB cytotoxicity, MALME-3M (melanoma); type: cell-based, human; details: 48 hrs exposure
Experimental: as §1, §2, §3

SK-MEL-28 = test: NCI SRB cytotoxicity, SK-MEL-28 (melanoma); type: cell-based, human; details: 48 hrs exposure
Experimental: as §1, §2, §3

SK-MEL-5 = test: NCI SRB cytotoxicity, SK-MEL-5 (melanoma); type: cell-based, human
Experimental: as §1, §2, §3

UACC-62 = test: NCI SRB cytotoxicity, UACC-62 (melanoma); type: cell-based, human
Experimental: as §1, §2, §3

OVCAR-4 = test: NCI SRB cytotoxicity, OVCAR-4 (ovarian); type: cell-based, human; details: 48 hrs exposure
Experimental: as §1, §2, §3

CAKI-1 = test: NCI SRB cytotoxicity, CAKI-1 (renal); type: cell-based, human; details: 48 hrs exposure
Experimental: as §1, §2, §3

TK-10 = test: NCI SRB cytotoxicity, TK-10 (renal); type: cell-based, human; details: 48 hrs exposure
Experimental: as §1, §2, §3

UO-31 = test: NCI SRB cytotoxicity, UO-31 (renal); type: cell-based, human; details: 48 hrs exposure
Experimental: as §1, §2, §3

MDA-MB- = test: NCI SRB cytotoxicity, MDA-MB- (breast); type: cell-based, human; details: 48 hrs exposure
Experimental: as §1, §2, §3

HS 578T = test: NCI SRB cytotoxicity, HS 578T (breast); type: cell-based, human
Experimental: as §1, §2, §3

BT-549 = test: NCI SRB cytotoxicity, BT-549 (breast); type: cell-based, human
Experimental: as §1, §2, §3

T-47D = test: NCI SRB cytotoxicity, T-47D (breast); type: cell-based, human; details: 48 hrs exposure
Experimental: as §1, §2, §3

[3] = text b111, read-out: GI50 against sixty cell lines in nine cancer cell panels
[4] = NCI-H522, Non-smallcell lung, 48 hrs exposure
[5] = SK-MEL-5, Melanoma, 48 hrs exposure
[6] = UACC-62, Melanoma, 48 hrs exposure
[7] = HS 578T, Breast, 48 hrs exposure
[8] = BT-549, Breast, 48 hrs exposure

COc1cc(C2=NOC(c3cc(OC)c(OC)c(OC)c3)C2)ccc1OCCCCOc1cc2c(cc1OC)C(=O)N1CCC[C@H]1C=N2 (stereo partly drawn) [Compound 5b, (11aS)-7-(methyloxy)-8-(4-[(2-(methyloxy)-4-5-[3,4,5-tri(methyloxy)phenyl]-4,5-dihydro-3-isoxazolylphenyl)oxy]butyloxy)-2,3,5,11a-tetrahydro-1H benzo[e]pyrrolo[1,2-a][1,4]diazepin-5-one]
GI50 ([1]; read-out: GI50 against sixty cell lines in nine cell panels): < 470 nM
in vitro cytotoxicity (in words) ([1]; human cancer cell lines): significant cytotoxicity
Log10 GI50 mean graph midpoint (MG_MID) [1]: −6.59
Log10 TGI mean graph midpoint (MG_MID) [1]: −6.05
activity of 5b compared with 9b ([1]; in vitro cytotoxicity, comparison of GI50): ten folds higher activity than 9b
GI50 [1, 3]: < 470 nM
Log10 LC50 (CNS): −5.18 mol/L
Log10GI50 (CNS): −6.51 mol/L
Log10 LC50 (Renal): −4.94 mol/L
Log10GI50 (Renal): −6.58 mol/L
Log10 LC50 (Breast): −4.52 mol/L
Log10GI50 (Breast): −6.74 mol/L
ΔTm after incubation at 37° C. for 0 hrs [2]: 4.1 °C
ΔTm after incubation at 37° C. for 18 hrs [2]: 6.2 °C
GI50 (RPMI-8226): 240 nM
GI50 (SR; SR, Leukemia, 48 hrs exposure): 140 nM
GI50 (SR; leukemia SR): 140 nM
GI50 (EKVX): 460 nM
GI50 (NCI-H322M): 340 nM
GI50 (NCI-H522; [4]): 120 nM
GI50 (NCI-H522; non-small cell lung cancer NCI-H522): 120 nM
GI50 (COLO 205): 210 nM
GI50 (HCT-15; HCT-15, Colon, 48 hrs exposure): 180 nM
GI50 (HCT-15; colon cancer HCT-15): 190 nM
GI50 (KM12): 220 nM
GI50 (SF-268): 340 nM
GI50 (SNB-19): 340 nM
GI50 (SNB-75): 320 nM
GI50 (MALME-3M): 210 nM
GI50 (SK-MEL-28): 200 nM
GI50 (SK-MEL-5; [5]): 160 nM
GI50 (SK-MEL-5; melanoma SK-MEL-5): 200 nM
GI50 (UACC-62; [6]): 160 nM
GI50 (UACC-62; melanoma UACC-62): 160 nM
GI50 (OVCAR-4): 400 nM
GI50 (CAKI-1): 250 nM
GI50 (TK-10): 280 nM
GI50 (UO-31): 290 nM
GI50 (MDA-MB-): 190 nM
GI50 (HS 578T; [7]): 160 nM
GI50 (HS 578T; breast HS 578T): 160 nM
GI50 (BT-549; [8]): 90 nM
GI50 (BT-549; breast BT-549): 90 nM
GI50 (T-47D): 280 nM

COc1ccc(C2CC(c3ccc(OC)c(OC)c3OC)=NO2)cc1OCCCCOc1cc2c(cc1OC)C(=O)N1CCC[C@H]1C=N2 (stereo partly drawn) [Compound 9b, (11aS)-7-(methyloxy)-8-(4-[(2-(methyloxy)-5-3-[2,3,4-tri(methyloxy)phenyl]-4,5-dihydro-5-isoxazolylphenyl)oxy]butyloxy)-2,3,5,11a-tetrahydro-1H-benzo[e]pyrrolo[1,2-a][1,4]diazepin-5-one]
Log10 GI50 mean graph midpoint (MG_MID) [1]: −5.73
Log10 TGI mean graph midpoint (MG_MID) [1]: −5.28
GI50 [1, 3]: < 3540 nM
Log10 LC50 (CNS): −5.05 mol/L
Log10GI50 (CNS): −5.74 mol/L
Log10 LC50 (Renal): −4.77 mol/L
Log10GI50 (Renal): −5.62 mol/L
Log10 LC50 (Breast): −4.34 mol/L
Log10GI50 (Breast): −5.74 mol/L
ΔTm after incubation at 37° C. for 0 hrs [2]: 1.2 °C
ΔTm after incubation at 37° C. for 18 hrs [2]: 2.3 °C
GI50 (RPMI-8226): 1430 nM
GI50 (SR; SR, Leukemia, 48 hrs exposure): 1120 nM
GI50 (EKVX): 3680 nM
GI50 (NCI-H322M): 3460 nM
GI50 (NCI-H522; [4]): 610 nM
GI50 (COLO 205): 1960 nM
GI50 (HCT-15; HCT-15, Colon, 48 hrs exposure): 2270 nM
GI50 (KM12): 1740 nM
GI50 (SF-268): 1890 nM
GI50 (SNB-19): 1960 nM
GI50 (SNB-75): 1710 nM
GI50 (MALME-3M): 2880 nM
GI50 (SK-MEL-28): 2070 nM
GI50 (SK-MEL-5; [5]): 1470 nM
GI50 (UACC-62; [6]): 1520 nM
GI50 (OVCAR-4): 2070 nM
GI50 (CAKI-1): 3090 nM
GI50 (TK-10): 3510 nM
GI50 (UO-31): 2090 nM
GI50 (MDA-MB-): 1150 nM
GI50 (HS 578T; [7]): 1100 nM
GI50 (BT-549; [8]): 1230 nM
GI50 (T-47D): 1310 nM
